A short description of this data set: Human HepG2 cell viability assay in 384 well format. The data set is classed as toxicity, cell-based. The arrangement: dose 125 nL, time 70.5 hour; concentration not given beside the values. The following applies: HepG2 cells, read-out: Inhibition.
On to `COCC(=O)N1CCC2(CC1)CC(N1CCN(C)CC1)CO2` (stereo not given), for which the cytotoxicity at 70.5 h was 14.5%.
For `Cc1ccc2c(c1)C1(CCNCC1)CC2N1CCOCC1` (stereo not given) the value was 1.67%; for `CCN(C)C(=O)c1ccc2c(c1)C(c1nc[nH]n1)CN2S(C)(=O)=O` (stereo not given), -8.39%.
For `CCc1cnc(NC2CCc3c(ccc(=O)n3C)C2)nc1` (stereo not given) the value was -5.8%; for `CC(C)CS(=O)(=O)N1CCC2(CC1)CCn1c(-c3cnn(C)c3)cnc12`, 32.9%.
Consider `CO[C@H]1CN(S(=O)(=O)c2cn(C)cn2)[C@@H]2CCCO[C@H]12`, for which the cytotoxicity at 70.5 h was 24.5%.
The figure for `CC(=O)N1CCC2(CC1)CN(C(=O)c1cccc3[nH]ccc13)CCO2` is 27.3%; for `Cc1cnc(NC2CCc3c(ccc(=O)n3CC3CC3)C2)nc1` (stereo not given) it is -5.47%; for `CCC(=O)N1CC[C@H]2C(=O)N(Cc3ccc(OC)cc3)CCO[C@H]2C1` it is 34.1%.
`CC(C)n1nc(CNc2ncccn2)c2c1CN(S(C)(=O)=O)CC2`: the cytotoxicity at 70.5 h was found to be 10.7%.
The figure for `Cc1cccc(CN2CC3C[C@]3(NC(=O)c3ccco3)C2)n1` (stereo not given in full) is -4.13%; for `COC[C@]12COC[C@H]1CN(C(=O)c1ccc(F)cc1C)C2` it is 0.0363%; for `CCO[C@H]1CN(C(=O)c2ccc3c(c2)OCO3)[C@@H]2COC[C@H]12` it is -2.21%.
For `Cc1ccc(CN2C[C@H](N(C)Cc3cncnc3)[C@H]3OCCC[C@H]32)o1` the value was -10.1%; for `CN(C)CCO[C@H]1CN(C(=O)c2ccc3c(c2)OCO3)[C@@H]2COC[C@H]12`, -11.6%.
The figure for `Cc1cc(F)ccc1C(=O)N1C[C@@H]2COC[C@]2(COCC2CC2)C1` is -10.8%; for `CC(=O)N1Cc2nccn2CC(CNC(=O)c2cnccn2)C1` (stereo not given) it is -13.1%.
With `CN1CC[C@H]2[C@H](C[C@@H](Cn3cncn3)N2c2nccs2)C1`, the cytotoxicity at 70.5 h was -8.05%.
For `Cc1cccc(CN2CC3C[C@]3(NC(=O)c3ccoc3)C2)n1` (stereo not given in full) the value was -12.4%; for `CN1CCN(c2ncnc3c2CCN(Cc2nccn2C)CC3)CC1`, 6.69%.
The figure for `c1coc(CN2CC[C@@H]3O[C@@H](COCC4CCOCC4)CC[C@@H]32)c1` is -0.874%; for `Cc1ccc(C(=O)N2CCC3(CCN(Cc4ccccn4)C3=O)C2)cn1` (stereo not given) it is -5.23%; for `O=C(COC[C@@H]1CC[C@H]2[C@H](CCN2Cc2ccco2)O1)N1CCCC1` it is 24.3%.
Take `CCN(CC)C(=O)C1CCC2(CCNCC2)O1` (stereo not given): the cytotoxicity at 70.5 h was -12.5%.
In the case of `CCN(CC)C(=O)C1CCC2(CCNCC2)CO1` (stereo not given), the cytotoxicity at 70.5 h was -14.2%.
The figure for `Cc1nnc([C@]23COC[C@H]2CN(Cc2nccs2)C3)o1` is -10.3%; for `CS(=O)(=O)N[C@@H]1CCO[C@]2(CCN(CC3CCOCC3)C2)C1` it is -5.05%.
As for `CS(=O)(=O)N[C@H]1CCO[C@]2(CCN(CC3CCOCC3)C2)C1`, the cytotoxicity at 70.5 h was -11.1%.
The figure for `CC(=O)N1Cc2nccn2CC(CNC(=O)c2cccnc2)C1` (stereo not given) is -11.5%; for `CC(=O)NCc1nnc2n1CCN(Cc1cccs1)C2` it is -11.7%.
The figure for `CCS(=O)(=O)N1CCCC2(CCCN2Cc2cccc(Cl)c2)C1` (stereo not given) is -4.53%; for `CNC(=O)CN1CCO[C@H]2CN(C(=O)c3ccncc3F)C[C@H]21` it is -3.77%.
For `O=S(=O)(C1CC1)N1CCO[C@@H]2CN(Cc3cccs3)C[C@@H]2C1` the value was -5.47%.
As to `CC(C)N1CCO[C@H]2CN(C(=O)c3ccncc3F)C[C@H]21`, the cytotoxicity at 70.5 h is -4.09%.
In the case of `O=S(=O)(c1ccccc1)N1CCC2(CCCN2Cc2cccc(Cl)c2)C1` (stereo not given), the cytotoxicity at 70.5 h is -11.2%.
For `CCCS(=O)(=O)N1C[C@@H]2CN(Cc3cccs3)CCO[C@@H]2C1` the value was -14.7%; for `O=S(=O)(C1CC1)N1C[C@@H]2CN(Cc3ccoc3)CCO[C@@H]2C1`, -15.4%.
For `Cc1cc(C(=O)N2C[C@@H]3COC[C@]3(CN(C)C)C2)c(C)o1` the value was -17.3%; for `Cc1cc(F)ccc1C(=O)N1C[C@@H]2COC[C@]2(CN(C)C)C1`, -14.9%; for `CCOCC1c2c(cnn2CC2CC2)CCN1C(=O)c1ccncn1` (stereo not given), 20.9%.
For `Cn1ncc2c1C(COCC1CC1)N(C(=O)c1ccncn1)CC2` (stereo not given) the value was 5.78%; for `O=C1C[C@@H]2[C@H](CCN2Cc2ccco2)N1c1ccsc1`, 9.07%; for `O=S(=O)(c1ccccc1)N1C[C@@H]2COC[C@]2(CN2CCOCC2)C1`, 13.1%.
In the case of `CN(C)S(=O)(=O)N1C[C@H]2CCC[C@@]2(COCc2ccccn2)C1`, the cytotoxicity at 70.5 h is 13.2%.
For `Cc1ccc(CN2CC[C@H]3[C@H]2CC(=O)N3c2ccsc2)o1` the value was 5.86%; for `c1coc(CN2CC[C@H]3O[C@@H](COCC4CC4)CC[C@H]32)c1`, 7.95%; for `CCO[C@H]1CO[C@@]2(CCCN(Cc3scnc3C)C2)C1`, 14.7%.
As for `Cn1c2c(ccc1=O)CCN(Cc1ccoc1)CC2`, the cytotoxicity at 70.5 h is 4.43%.
For `CN(C)C(=O)COC[C@H]1CC[C@@H]2[C@@H](CCN2Cc2ccco2)O1` the value was 7.59%.
For `Fc1ccc(CN2CCc3ncnc(C4CC4)c3CC2)cc1` the value was 1.98%; for `c1ccc(CN2Cc3nccn3CC(Cn3cncn3)C2)nc1` (stereo not given), 2.19%.
The figure for `O=C(c1ccsc1)N1CCC2(CCN(Cc3ccccn3)C2=O)C1` (stereo not given) is 2.48%; for `Cc1ccc(C(=O)N2CC[C@@H]3[C@H]2CCC(=O)N3CCN(C)C)cn1` it is 18.5%; for `CC(=O)N(C)Cc1nn(C)c2c1CN(Cc1ccsc1)C2` it is -6.65%.
Turning to `c1ccc(CN2CCc3ncnc(C4CC4)c3CC2)nc1`, the cytotoxicity at 70.5 h is -1.29%.
For `CCO[C@@H]1C[C@H]2CN(Cc3ccc(C)o3)CCN2C1` the value was -11.9%; for `c1csc(CN2CCO[C@@H]3CN(C4CCOCC4)C[C@@H]3C2)c1`, -10%.
For `Cn1cnc(S(=O)(=O)N2CCN(CC3CC3)c3ncccc3C2)c1` the value was -6.52%.
For `CC(C)CN1CCN(S(=O)(=O)c2cn(C)cn2)Cc2cccnc21` the value was -10.6%; for `Cc1csc(CN2CCC[C@]3(C[C@@H](Oc4ccccn4)CO3)C2)n1`, 1.82%; for `O=C(NC[C@H]1OC[C@@H]2CN(Cc3ccco3)CC[C@@H]21)c1cccnc1`, 6.02%.
With `Cc1cccc(CN2CCc3ncnc(N4CCN(C)CC4)c3CC2)n1`, the cytotoxicity at 70.5 h was -0.603%.
For `c1cc(CN2Cc3nccn3CC(Cn3cncn3)C2)ccn1` (stereo not given) the value was 3.67%; for `CC(C)N1[C@H](CN2CCCC2)C[C@@H]2CN(Cc3ccoc3)CC[C@@H]21`, -10%; for `c1cncc(CN2CC[C@@H]3O[C@H](COCCN4CCCC4)CC[C@@H]32)c1`, 5.3%.

The values are drawn from ChEMBL document CHEMBL3507680, “University of Dundee, Gates Library screen for HepG2 cell viability”.
